The values that follow are results of earlier work, collected in US9915714B2, “MSC-SELMQC method for simultaneous mapping of polyunsaturated fatty acids, lactate and choline in high fat tissues” (University of Pittsburgh—Of the Commonwealth System of …, priority 2007, dated 2018).

The test system of the series is RIF-1 tumors. Conditions: following therapeutic intervention, 300 mg/kg; correlates with increases in tumor perfusion and permeability (Gd-DTPA uptake curves).

Regarding `O=P1(N(CCCl)CCCl)NCCCO1` (stereo not shown) [cyclophosphamide], the “lactate levels in RIF-1 tumors” value was “decrease”.
